Source: patent US12102667B2, “Polypeptides and antibiotics against gram-negative bacterium comprising the same” (priority 2021, dated 2024)
Entries after “also recorded” stand apart in the source; their conditions may differ. Like-named read-outs stand apart in the source and are kept apart here.

Columns and labels:
K. pneumoniae = K. pneumoniae CCARM 10143; cited from earlier work
E. coli [1] = conditions: cited from earlier work
E. coli [2] = assay: Checkerboard assay (MIC in combination, FIC index); type: cell-based, Escherichia coli; conditions: antibiotic combined with LNT113
Experimental: LNT113 was vertically diluted 2-fold and the antibiotic was serially diluted horizontally in a 96-well plate. Bacterium at a concentration of 10^6 CFU/ml were added to each well in a CAA medium. […] The fractional inhibitory concentration (FIC) for the LNT113 or antibiotic was calculated by dividing the MIC of two drugs by combining it with the MIC of each drug alone. […] The FICI was considered as a synergistic effect ≤0.5, an additive >0.5 ˜≤1, an independent effect (indifference)>1.0 ˜≤2, and an antagonistic effect (antagonism) >2.

Structure (SMILES)	MIC of antibiotics (K. pneumoniae)	MIC of antibiotics (E. coli [1]; E. coli CCARM 1A746)	MIC of antibiotics (E. coli [1]; E. coli CCARM 1B684)	Fractional inhibitory concentration index (FICI) of LNT113 using various antibiotics (E. coli [2]; E. coli ATCC 8739)	Fractional inhibitory concentration index (FICI) of LNT113 using various antibiotics (E. coli [2]; E. coli ATCC 51739)	Fractional inhibitory concentration index (FICI) of LNT113 using various antibiotics (E. coli [2]; E. coli CCARM 1A746)	Fractional inhibitory concentration index (FICI) of LNT113 using various antibiotics (E. coli [2]; E. coli FORC81)	Fractional inhibitory concentration index (FICI) of LNT113 using various antibiotics (E. coli [2]; E. coli UPEC 3150)	combination effect with LNT113, in words (E. coli [2]; E. coli strains overall)
CC1(C)S[C@@H]2[C@H](NC(=O)[C@H](N)c3ccccc3)C(=O)N2[C@H]1C(=O)O [Ampicillin]	≥128 µg/mL	≥128 µg/mL	≥128 µg/mL						
CC[C@H]1OC(=O)[C@H](C)[C@@H](O[C@H]2C[C@@](C)(OC)[C@@H](O)[C@H](C)O2)[C@H](C)[C@@H](O[C@@H]2O[C@H](C)C[C@H](N(C)C)[C@H]2O)[C@](C)(O)C[C@@H](C)CN(C)[C@H](C)[C@@H](O)[C@]1(C)O [Azithromycin]				1	0.75	1	2	0.75	
CC(C)(O/N=C(\C(=O)N[C@@H]1C(=O)N2C(C(=O)[O-])=C(C[n+]3ccccc3)CS[C@H]12)c1csc(N)n1)C(=O)O [Ceftazidime]				2	2	2	1	1	Neither ceftazidime and kanamycin showed a synergistic or additive effect; also recorded: little additive effect
O=C(N[C@H](CO)[C@H](O)c1ccc([N+](=O)[O-])cc1)C(Cl)Cl [Chloramphenicol]				1	0.75		2	0.75	
NC[C@H]1O[C@H](O[C@H]2[C@H](O)[C@@H](O[C@H]3O[C@H](CO)[C@@H](O)[C@H](N)[C@H]3O)[C@H](N)C[C@@H]2N)[C@H](O)[C@@H](O)[C@@H]1O [Kanamycin]				2	1		1	1	
